Measurements as given in patent US6545045B1, “Prostaglandin E agonists for treatment of glaucoma” (Alcon Manufacturing, Ltd., priority 1998, dated 2003).
One block for each compound: values may come before it.

Experiments:
EP2 receptors = biological target: T1, EP2 receptors (Homo sapiens, UniProt P43116); assay: cAMP production (radioimmunoassay) via EP2 receptors in immortalized human non-pigmented ciliary epithelial cells; format: cell-based
T1 construct: Immortalized human non-pigmented ciliary epithelial cells (containing EP2 receptors); endogenous in cells; host or cells: immortalized human non-pigmented ciliary epithelial cells
T1 sequence (P43116 whole entry): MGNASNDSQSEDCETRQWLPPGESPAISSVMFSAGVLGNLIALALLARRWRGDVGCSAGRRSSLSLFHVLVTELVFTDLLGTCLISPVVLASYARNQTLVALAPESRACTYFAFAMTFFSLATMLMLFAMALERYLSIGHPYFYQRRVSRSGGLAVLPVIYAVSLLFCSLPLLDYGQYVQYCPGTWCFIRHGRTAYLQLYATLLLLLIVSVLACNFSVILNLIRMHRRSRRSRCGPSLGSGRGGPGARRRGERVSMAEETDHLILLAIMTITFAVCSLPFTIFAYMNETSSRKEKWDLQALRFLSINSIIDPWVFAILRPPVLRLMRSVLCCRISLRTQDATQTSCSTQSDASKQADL
Protocol: (§1) Immortalized human non-pigmented ciliary epithelial cells (containing EP2 receptors) and Chinese hamster ovary cells (containing EP4 receptors, Milne et al. Human moncytes and cultured Chinese hamster ovary cells express EP4 receptors positively coupled to adenylate cyclase, Br. J. Pharmacology, 113 (supplement):8 (1994)) were stimulated with various prostaglandins for 15-60 min at 23° C. The cAMP produced by receptor activation was determined by a specific radioimmunoassay as previously described (Sharif et al., Pharmacological analysis of mast cell mediator and neurotransmitter receptors coupled to adenylate cyclase and phospholipase C on immunocytochemically-defined human conjunctival epithelial cells, J. Ocular Pharmacology & Therapeutics, 13, 321-336 (1997); Crider et al. Prostaglandin-stimulated adenylyl cyclase activity via a pharmacologically-defined EP2 receptor in human non-pigmented epithelial cells, J. Ocular Pharmacology & Therapeutics 14:293-304 (1998); Crider et al. Use of a semi-automated, robotic radioimmunoassay to measure cAMP generated by activation of DP-, EP2- and IP-prostaglandin receptors in human ocular and other cell-types, Prostaglandins, Leukotrienes & Fatty Acids 59:77-82 (1998), Milne et al. Human moncytes and cultured Chinese hamster ovary cells express EP4 receptors positively coupled to adenylate cyclase, Br. J. Pharmacology, 113 (supplement):8, (1994)).

EP4 receptors = biological target: T2, EP4 receptors (Cricetulus griseus, UniProt A0A061ILF4); assay: cAMP production (radioimmunoassay) via EP4 receptors in Chinese hamster ovary cells; format: cell-based; conditions: stimulated 15-60 min at 23° C; for EC50: read-out: Potency (EC50, nM) at EP4 Receptors in Chinese Hamster Ovary Cells
T2 construct: Chinese hamster ovary cells (containing EP4 receptors); endogenous in cells; host or cells: Chinese hamster ovary (CHO) cells
T2 sequence (A0A061ILF4 1-488): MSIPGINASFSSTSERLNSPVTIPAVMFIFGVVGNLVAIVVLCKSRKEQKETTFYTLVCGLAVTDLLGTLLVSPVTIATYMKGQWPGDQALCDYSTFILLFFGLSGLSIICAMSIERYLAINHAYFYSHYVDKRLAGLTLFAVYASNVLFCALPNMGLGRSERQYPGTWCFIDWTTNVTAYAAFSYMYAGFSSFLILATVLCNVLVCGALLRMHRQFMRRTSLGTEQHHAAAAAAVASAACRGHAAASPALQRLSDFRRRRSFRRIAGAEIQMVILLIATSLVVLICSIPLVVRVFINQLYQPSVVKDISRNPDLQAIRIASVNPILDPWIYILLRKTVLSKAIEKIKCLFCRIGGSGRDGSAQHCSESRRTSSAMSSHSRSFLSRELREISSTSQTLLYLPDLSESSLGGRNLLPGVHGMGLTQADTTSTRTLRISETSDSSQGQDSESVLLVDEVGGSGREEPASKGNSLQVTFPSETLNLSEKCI
Protocol: as §1

[1] = cAMP production, stimulated 15-60 min at 23° C

Structure (SMILES): CCCCC(C)(C)[C@H](O)/C=C/[C@H]1CCC(=O)[C@@H]1C/C=C\CCCC(=O)O [11-deoxy-16,16-dimethyl-PGE2, 11-deoxy-16,16-dimethyl PGE2]
efficacy at EP4 Receptors in Chinese Hamster Ovary Cells (EP4 receptors): 99%

Structure (SMILES): CCCCC[C@H](O)/C=C/[C@H]1CCC(=O)[C@@H]1CCCCCCC(=O)O [11-deoxy-PGE1]
EC50 (EP2 receptors; cAMP production, stimulated 15-60 min at 23° C, read-out: Potency (EC50, nM) at EP2 Receptors in Immortalized Human Non-pigmented Ciliary Epithelial Cells): 500 nM | efficacy at EP4 Receptors in Chinese Hamster Ovary Cells (EP4 receptors): 86% | EC50 (EP4 receptors): 38 nM

Structure (SMILES): CCCC1([C@H](O)C/C=C/[C@H]2[C@H](O)CC(=O)[C@@H]2CCCCCCC(=O)OC)CCC1 [Butaprost]
selectivity between EP2 and EP4 receptors (relative agonist potency) (EP2 receptors; EP2 versus EP4, from EC50 values of Table 1): more EP2-selective

Further lines, with some results ahead:

Potency (EC50, nM) at EP4 Receptors in Chinese Hamster Ovary Cells (EP4 receptors): Inactive | Potency (EC50, nM) at EP4 Receptors in Chinese Hamster Ovary Cells (EP4 receptors; listed as fluprostenol): inactive
Structure (SMILES): O=C(O)CCC/C=C\C[C@@H]1[C@@H](/C=C/[C@@H](O)COc2cccc(C(F)(F)F)c2)[C@H](O)C[C@@H]1O (racemic) [Fluprostenol]
Potency (EC50, nM) at EP2 Receptors in Immortalized Human Non-pigmented Ciliary Epithelial Cells (EP2 receptors; [1]): Inactive | Potency (EC50, nM) at EP2 Receptors in Immortalized Human Non-pigmented Ciliary Epithelial Cells (EP2 receptors; cAMP production, stimulated 15-60 min at 23° C, listed as fluprostenol): inactive

efficacy at EP4 Receptors in Chinese Hamster Ovary Cells (EP4 receptors): 100%
Structure (SMILES): CCCCC(C)(C)[C@H](O)/C=C/[C@H]1[C@H](O)CC(=O)[C@@H]1C/C=C\CCCC(=O)O [16,16-dimethyl-PGE2, 16,16-dimethyl PGE2]

Potency (EC50, nM) at EP4 Receptors in Chinese Hamster Ovary Cells (EP4 receptors): Inactive | Potency (EC50, nM) at EP4 Receptors in Chinese Hamster Ovary Cells (EP4 receptors; listed as cloprostenol): inactive
Structure (SMILES): O=C(O)CCC/C=C\CC1C(O)CC(O)C1/C=C/C(O)COc1cccc(Cl)c1 (stereo not shown) [Cloprostenol]
Potency (EC50, nM) at EP2 Receptors in Immortalized Human Non-pigmented Ciliary Epithelial Cells (EP2 receptors; [1]): Inactive | Potency (EC50, nM) at EP2 Receptors in Immortalized Human Non-pigmented Ciliary Epithelial Cells (EP2 receptors; cAMP production, stimulated 15-60 min at 23° C, listed as cloprostenol): inactive

efficacy at EP4 Receptors in Chinese Hamster Ovary Cells (EP4 receptors): 100% | EC50 (EP4 receptors): 35 nM
Structure (SMILES): CCCCC[C@H](O)/C=C/[C@H]1[C@H](O)CC(=O)[C@@H]1C/C=C\CCCC(=O)O [PGE2]
